Measurements as given in ChEMBL document CHEMBL1133432, “Probes for imidazoline binding sites: synthesis and evaluation of a selective, irreversible I2 ligand” (Bioorg Med Chem Lett, 2000).

Columns and labels:
[1] = target: T1, Adrenergic receptor alpha-2 (Rattus norvegicus, UniProt P22086+P19328+P22909); experiment: Inhibition of 1 nM [3H]RX-821002 binding to rat whole brain membrane Alpha-2 adrenergic receptors
T1 sequence (P22086 whole entry): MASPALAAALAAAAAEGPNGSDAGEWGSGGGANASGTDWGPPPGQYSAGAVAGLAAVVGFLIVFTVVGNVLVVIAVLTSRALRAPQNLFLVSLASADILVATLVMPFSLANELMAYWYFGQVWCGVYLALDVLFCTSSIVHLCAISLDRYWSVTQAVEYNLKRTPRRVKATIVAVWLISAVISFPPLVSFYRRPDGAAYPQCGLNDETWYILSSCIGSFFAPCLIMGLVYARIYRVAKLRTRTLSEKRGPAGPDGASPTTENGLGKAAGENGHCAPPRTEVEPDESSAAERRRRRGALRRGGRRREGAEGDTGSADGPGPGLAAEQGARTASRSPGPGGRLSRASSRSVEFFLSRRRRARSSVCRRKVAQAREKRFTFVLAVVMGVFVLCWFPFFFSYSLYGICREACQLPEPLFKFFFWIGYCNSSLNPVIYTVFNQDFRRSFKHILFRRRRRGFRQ
T1 sequence (P19328 whole entry): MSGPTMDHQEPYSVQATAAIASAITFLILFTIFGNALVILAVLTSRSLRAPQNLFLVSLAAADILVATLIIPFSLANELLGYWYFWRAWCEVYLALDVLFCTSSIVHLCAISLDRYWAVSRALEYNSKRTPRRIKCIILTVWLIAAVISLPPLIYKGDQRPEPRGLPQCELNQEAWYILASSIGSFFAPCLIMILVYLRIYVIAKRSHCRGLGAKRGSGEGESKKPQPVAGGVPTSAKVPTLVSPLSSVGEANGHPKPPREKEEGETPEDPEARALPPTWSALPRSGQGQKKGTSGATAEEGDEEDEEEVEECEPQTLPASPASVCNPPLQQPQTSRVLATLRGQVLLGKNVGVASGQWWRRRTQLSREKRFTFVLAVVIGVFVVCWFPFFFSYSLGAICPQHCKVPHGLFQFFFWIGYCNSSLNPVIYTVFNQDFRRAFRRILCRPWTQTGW
T1 sequence (P22909 whole entry): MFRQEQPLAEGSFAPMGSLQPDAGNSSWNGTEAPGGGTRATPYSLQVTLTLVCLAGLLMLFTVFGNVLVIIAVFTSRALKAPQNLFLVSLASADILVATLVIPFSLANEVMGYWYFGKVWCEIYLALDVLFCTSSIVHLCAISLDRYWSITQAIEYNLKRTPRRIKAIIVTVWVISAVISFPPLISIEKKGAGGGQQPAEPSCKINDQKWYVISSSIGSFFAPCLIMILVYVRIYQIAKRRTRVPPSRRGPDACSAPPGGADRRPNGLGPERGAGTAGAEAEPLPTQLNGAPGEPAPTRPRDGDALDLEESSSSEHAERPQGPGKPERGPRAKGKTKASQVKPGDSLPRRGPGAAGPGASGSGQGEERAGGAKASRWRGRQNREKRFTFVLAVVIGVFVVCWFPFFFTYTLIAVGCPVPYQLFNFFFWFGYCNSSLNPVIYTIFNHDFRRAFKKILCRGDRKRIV

[2] = Inhibition of 1 nM [3H]2-BFI binding to rat whole brain membrane imidazoline receptor I-2

Ki [1] [nM] | Ki [2] [nM] | SMILES
1900 | 1.7 | c1ccc2oc(C3=NCCN3)cc2c1
16300 | 2.3 | N#CSc1ccc2oc(C3=NCCN3)cc2c1
